Patent US20230000808A1, “COMPOSITIONS AND METHODS EXCLUDING OR WITH REDUCED GLUTAMINE FOR THE TREATMENT OF HEMOGLOBINOPATHIES AND THALASSEMIAS” (AXCELLA HEALTH INC., priority 2019, published 2023)

Experiments:
Assay type in all cases: cell-based, human
sICAM-1 = assay: Soluble ICAM-1 in HLMVEC/TNF-α model (Luminex); details: for sICAM-1 expression relative to TNF Control, Mean % Change: 20×HMDB amino acids, 24 h co-treatment
Procedure: Cells were incubated at 37° C., 5% CO2 in a humidified incubator. Cells were passaged at least 1-2 times in the complete growth medium every 2-3 days until ready to plate for cell culture studies. Once ready for experiment, HLMVECs were seeded at a density of 6K cells per well of the 96 well optical microplates (Thermofisher) in the complete growth medium described above and the plated cells were incubated for 24 hours at 37° C. in a humidified incubator with 5% CO2. […] The values are published in the Human Metabolome Database (Wishart D S, et al., Nucleic Acids Res. 2007 January; 35:D521-6) which is hereby incorporated by reference in its entirety. The medium was also supplemented with growth factors & antibiotics from EGM2-MV kit (Lonza) except the kit-provided FBS which was substituted with dialyzed FBS (Hyclone). […]). […] were run in duplicate and data was normalized to corresponding TNF-α control for respective treatments as specified in the tables. Mean percent change in level of adhesion markers are reported herein. Statistical analysis was done using two sample t-test.

MCP-1 = MCP-1 in HLMVEC/TNF-α model (ELISA); details: for MCP-1 expression relative to TNF Control, Mean % Change: 20×HMDB amino acids, 24 h co-treatment
Procedure: Cells were incubated at 37° C., 5% CO2 in a humidified incubator. Cells were passaged at least 1-2 times in the complete growth medium every 2-3 days until ready to plate for cell culture studies. Once ready for experiment, HLMVECs were seeded at a density of 6K cells per well of the 96 well optical microplates (Thermofisher) in the complete growth medium described above and the plated cells were incubated for 24 hours at 37° C. in a humidified incubator with 5% CO2. […] The values are published in the Human Metabolome Database (Wishart D S, et al., Nucleic Acids Res. 2007 January; 35:[…]-6) which is hereby incorporated by reference in its entirety. The medium was also supplemented with growth factors & antibiotics from EGM2-MV kit (Lonza) except the kit-provided FBS which was substituted with dialyzed FBS (Hyclone). […] Human MCP-1 was measured by ELISA (Human […] DuoSet ELISA, R&D Systems) at 1/70 dilution in 1× Reagent Diluent (Reagent Ancillary Kit 2, R&D Systems). Samples were run in triplicates. […] Samples were run in triplicates. Mean percent change in cytokine levels relative to vehicle are reported herein. Statistical analysis was done using two sample t-test.

HLMVECs = assay: Mitochondrial stress test, oxygen consumption rate in HLMVEC/TNF-α model (Seahorse); details: for Maximal respiration (OCR) relative to TNF Control, Mean % Change: HLMVEC/TNF-α model, 24 h, Seahorse
Procedure: Cells were incubated at 37° C., 5% CO2 in a humidified incubator. Cells were passaged at least 1-2 times in the complete growth medium every 2-3 days until ready to plate for cell culture studies. Once ready for experiment, HLMVECs were seeded at a density of 6K cells per well of the 96 well optical microplates (Thermofisher) in the complete growth medium described above and the plated cells were incubated for 24 hours at 37° C. in a humidified incubator with 5% CO2. […] The values are published in the Human Metabolome Database (Wishart D S, et al., Nucleic Acids Res. 2007 January; 35:[…]-6) which is hereby incorporated by reference in its entirety. The medium was also supplemented with growth factors & antibiotics from EGM2-MV kit (Lonza) except the kit-provided FBS which was substituted with dialyzed FBS (Hyclone). […] Using the Agilent Seahorse XF Cell Mito Stress Test Kit (103015-100), parameters of mitochondrial function were studied by directly measuring the oxygen consumption rate (OCR) of HLMVECs on the Seahorse Flux Analyzer (Agilent Technologies) following the manufacturer's recommended protocol and prescribed controls in the kit. The co-treatment cell culture medium after 24 h incubation was removed & aliquoted for adhesion & inflammation biomarker analyses as described above and the HLMVECs in the 96-well plate were further incubated at 37° C. in a non-CO2 incubator for 45 minutes to 1 hour in the pre-warmed Seahorse assay medium supplemented with 10 mM glucose and 1 mM pyruvate but without 2 mM L-glutamine to allow unambiguous evaluation of amino acid combinations in the study. Oxygen consumption was measured at the end of incubation by the Seahorse Flux Analyzer. Four replicates for each treatment were processed for Seahorse studies. Mean percent change in maximal respiration is reported. Statistical analysis was done using one-way ANOVA two sample t-test.

[1] = tested on: whole blood from healthy controls; assay: ROS (DCF fluorescence) in whole blood of healthy control donors, H2O2-induced; details: healthy control donors treated with H2O2; dose-responsive
Procedure: (§1) Whole blood samples were appropriately diluted in Ca^2+- and Mg^2+-free Dulbecco's phosphate buffered saline (DPBS, Life Technologies) and the concentration of erythrocytes (RBC/mL) was measured on a Cellometer K2 Fluorescent Viability Cell Counter according to the manufacturer's RBC/AOPI protocol (Nexcelom Biosciences).
(§2) Cells were then diluted to 1×10^6 RBC/mL into either prewarmed 37° C. […] 2′-7′-dichlorofluorescin diacetate (DCF, Millipore Sigma), 20 mM in dimethyl sulfoxide (DMSO, Fisher) were added to a working concentration of 100 μM. Cells were incubated with dye for 15 minutes at 37° C., 5% CO2 in a tissue culture incubator, washed once, and resuspended in the 0.9 volumes of the same prewarmed 37° C. buffer with 5 minute spins at 500×g, accel/decal=5 in a swing arm centrifuge (Beckman Coulter). […] Where possible due to solubility constrains, pH-7.4-adjusted stock solutions of amino acids were used. Wells were mixed by pipetting and plates incubated at 37° C., 5% CO2 in a tissue culture incubator for 30 minutes. Optionally, 40 mM H2O2 (Millipore Sigma) freshly prepared in the same buffer was added to bring the concentration to 2 mM, wells mixed by pipetting, and plates were incubated an additional 30, 60, 120, or 240 minutes before fluorescence measurement of ROS signal on a Synergy H4 (BioTek) microplate reader with excitation=488 nm and emission=530 nm, and gain either set to autogain, 75, or 100.

[2] = tested on: sickle cell disease patient blood; assay: ROS (DCF fluorescence) in sickle cell disease patient whole blood; details: both treated with H2O2 and untreated, in DPBS
Procedure: as §1, §2

HLMVEC = assay: META-rank score, composite of VCAM1, ICAM1 and IL6 in the HLMVEC model; details: HLMVEC + TNF-α; lower score = more optimal; 20x HMDB / 5 mM
Procedure: The ability of single amino acids and combinations to simultaneously impact these phenotypes was measured by a META-rank score (Tables 17 and 18). META-rank score is a composite measure that considers the optimal impact on all 3 phenotypes (e.g. decrease VCAM1, ICAM1, and IL6) in the HLMVEC model.

Row | SMILES | sICAM-1 levels (sICAM-1; 0.5 ng/mL TNF-α (low), 20×HMDB, 24 h) | sICAM-1 expression relative to TNF Control, Mean % Change (sICAM-1; TNF Conc 0.5 ng/mL) | sICAM-1 expression relative to TNF Control, Mean % Change (sICAM-1; TNF Conc 25 ng/mL) | sICAM-1 level increased by (sICAM-1; TNF-α 25 ng/mL, 20×HMDB, 24 h) | MCP-1 expression relative to TNF Control, Mean % Change (MCP-1; TNF Conc 0.5 ng/mL) | MCP-1 expression relative to TNF Control, Mean % Change (MCP-1; TNF Conc 25 ng/mL) | MCP-1 level reduction relative to the controls (MCP-1; both TNF-α treatment groups) | Maximal respiration (OCR) relative to TNF Control, Mean % Change (HLMVECs; TNF Conc 0.5 ng/mL) | Maximal respiration (OCR) relative to TNF Control, Mean % Change (HLMVECs; TNF Conc 25 ng/mL) | oxygen consumption (HLMVECs; either TNF-α concentration) | oxygen consumption (HLMVECs; higher TNF-α concentration of 25 ng/mL) | ROS measured in whole blood [1] | ROS measured in whole blood [2] | Meta-Rank (Table 18) (HLMVEC) | Metarank (Table 17) (HLMVEC)
1 | NC(=O)CC[C@H](N)C(=O)O [Glutamine, L-glutamine] | failed to reduce | 5.573% | 142.4986% | 142% | −11.673% | −12.1569% | ~12% | −47.7527% | −27.9927% | did not support oxygen consumption | appeared to get worse |  |  |  | 
2 | CC(=O)N[C@@H](CS)C(=O)O [N-Acetyl Cysteine, N-acetylcysteine] |  |  |  |  |  |  |  |  |  |  |  | reduced | reduced | 4 | 6
